Article doi:10.1101/2025.08.24.671973v1 (biorxiv, 2025)

Assays:
[1] = target: CHI3L1/galectin-3 interaction (hCHI3L1-His with galectin-3-GST) (Homo sapiens, UniProt P36222); assay: AlphaLISA, inhibition of CHI3L1/galectin-3 interaction; format: binding
[2] = target: CHI3L1 (hCHI3L1-His) (Homo sapiens, UniProt P36222); assay: SPR; format: binding
CHI3L1 (hCHI3L1-His), sequence (P36222 22-383): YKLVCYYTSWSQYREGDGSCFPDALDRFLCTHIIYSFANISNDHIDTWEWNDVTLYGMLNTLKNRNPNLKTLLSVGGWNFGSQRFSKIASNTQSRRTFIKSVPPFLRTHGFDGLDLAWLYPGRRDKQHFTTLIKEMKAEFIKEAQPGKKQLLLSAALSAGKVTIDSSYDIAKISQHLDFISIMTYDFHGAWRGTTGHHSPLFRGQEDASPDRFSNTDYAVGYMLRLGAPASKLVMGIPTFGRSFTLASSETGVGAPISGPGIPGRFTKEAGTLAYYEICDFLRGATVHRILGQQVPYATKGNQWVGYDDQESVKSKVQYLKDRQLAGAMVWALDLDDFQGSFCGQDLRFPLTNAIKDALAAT

CHI3L1/galectin-3 interaction (hCHI3L1-His with galectin-3-GST), sequence (P36222 22-383): as above
CHI3L1/galectin-3 interaction (hCHI3L1-His with galectin-3-GST), sequence (P17931 2-250 partner): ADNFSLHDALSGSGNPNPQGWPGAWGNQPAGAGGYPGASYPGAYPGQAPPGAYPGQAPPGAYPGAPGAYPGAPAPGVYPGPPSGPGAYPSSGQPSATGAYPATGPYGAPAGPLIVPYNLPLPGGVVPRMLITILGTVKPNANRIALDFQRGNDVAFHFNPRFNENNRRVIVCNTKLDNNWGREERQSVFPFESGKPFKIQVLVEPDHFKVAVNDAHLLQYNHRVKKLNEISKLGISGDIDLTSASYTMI

SMILES	IC50 [1] [µM]	Kd [2] [µM]
CC1Cc2ccccc2CN1C(=O)NCc1cc(=O)n2ccccc2n1 (stereo not shown) [1-4]	23.5 ± 2	10.4 ± 1
Cc1c(NC(=O)Cn2cnc3sccc3c2=O)cnn1C1CCCC1 [1-7]	15.4 ± 4.7	7.4 ± 0.78
